Key:
primary osteoblasts = assay: Gene expression and apoptosis in primary osteoblasts; format: cell-based, mouse
Protocol: Primary osteoblast cultures were established as previously described (see, e.g., Ducy et al., 2000, Cell 100: 197-207) and maintained in αMEM/0.1 mg/ml ascorbic acid supplemented with 10% FBS. SaOS-2 were grown in MEM/10% FBS. For cAMP assay confluent cultures were incubated with serum free medium containing 100 μM IBMX (3-isobutyl-1-methylxanthine, Sigma) for 8 minutes before PBS, PTH(1-34) (Bachem), isoproterenol, norepinephrine, phenylephrine (Sigma) or propranolol were added for 5 min. Intracellular cAMP concentration was measured by immunoassay (R&D Systems). For gene expression analyses, primary osteoblasts were treated for 72 hours with appropriate drugs in 0.1% FBS. Hormone serum levels were quantified using immunoassays kits from Peninsula Laboratories (Insulin) or Alpco Diagnostics (leptin). Deoxypyridinoline cross-links and Creatinine were measured in morning urines using the Quidel kits. a1(I) leptin bioactivity was verified by cotransfection of 293 cells expressing ObRb with a STAT3-responsive-luc reporter construct, pSVβgal plasmid and a1(I) leptin expression vector or mock. Twenty-four hours later luciferase and β-galactosidase activities were measured. Data represents ratios of luciferase/β-galactosidase activities, and values are mean of 6 independent transfection experiments.
To elucidate the bases of the antiosteogenic effect of isoproterenol in vivo, osteoblast proliferation, gene expression and apoptosis were studied.

[1] = test system: osteoblasts in calvariae of newborn mice; assay: In vivo osteoblast proliferation assay (BrdU labeling, calvariae); parameters: species or system mouse; conditions: newborn wt mice treated daily for 5 days; 40 μg isoproterenol or 4 μg dexamethasone
Protocol: Specimens were embedded in paraffin and sectioned at 6 μm. Brains were stained with 0.1% cresyl violet using standard procedures. Immunohistochemistry was performed according to standard protocols (see, e.g., Ausubel, 1995, Current Protocols in Molecular Biology, New York). […] BrdU incorporation was detected by immunohistochemistry using Zymed BrdU staining kit (Zymed Laboratories Inc.). Four pups per treatment were analyzed and 10 calvariae sections were counted per animal. NovaRED was used as a chromogenic peroxidase substrate. Sections were counterstained with hematoxylin.

[2] = primary osteoblasts, 72 hours, 0.1% FBS, Northern blot

SMILES: CC(C)NCC(O)c1ccc(O)c(O)c1 (stereo not shown) [isoproterenol]
- apoptosis: Caspase 3 expression and Annexin-V staining levels (primary osteoblasts; isoproterenol-treated versus control osteoblasts): did not observe any change
- expression of Cbfa1 (primary osteoblasts; [2]): decreased
- expression of a1(I) collagen (primary osteoblasts; [2]): decreased
- number of BrdU positive cells in calvariae compared to control mice (osteoblast proliferation) [1]: nearly two-fold reduction

Source: patent US20060165683A1, “Methods and compositions for control of bone formation via modulation of sympathetic tone” (priority 2001, published 2006)
